Measurements taken from patent publication US10253052B2, “HBED-bisphosphonates, radiometal conjugates and their use as theranostic agents” (Five Eleven Pharma Inc., priority 2015, dated 2019).
Values joined by “and” are separate entries in the source; they are usually repeats but may differ in a detail not shown here. Equal entries are not always repeated. Marks after values point to notes of the source that are not given here.

Legend:
[1] = In vivo biodistribution in mice; parameters: species or system normal CD-1 male mice; conditions: for bone to blood ratio / bone to muscle ratio / Biodistribution: Blood / Biodistribution: Bone / Biodistribution: Brain / Biodistribution: Heart / Biodistribution: Kidney / Biodistribution: Liver / Biodistribution: Lung / Biodistribution: Muscle / Biodistribution: Pancreas / Biodistribution: Skin / Biodistribution: Spleen: iv
Procedure: Biodistribution experiments were performed by intravenously administering ^68Ga labeled 1a-h, 2, 3, BPAMD, and [^18F]NaF into normal, healthy male CD-1 mice (25-30 g). The injection activity was 20-30 μCi/animal. […] Organs of interest were harvested, weighed, and counts of radioactivity were measured by a gamma counter. The biodistribution of each sample was calculated as a percentage of the injected dose per gram of wet tissue weight (% ID/g). Tibia and femur bones were harvested and counted as bone samples.

[2] = In vitro binding to hydroxyapatite; conditions: 20 mg hydroxyapatite in saline, 10 min at room temperature
Procedure: Hydroxyapatite (20 mg, Sigma-Aldrich, reagent grade powder) was incubated in isotonic saline (1 mL) for 24 h. Subsequently, either ^68Ga labeled 1a-h, 2, 3, BPAMD, or [^18F]NaF (1 μCi) was added to the hydroxyapatite suspension. After vortexing for 10 seconds, the suspension was incubated for 10 min at room temperature. The samples were then centrifuged at 10,000 rpm for 3 min and the supernatant was removed. The hydroxyapatite fraction was washed twice with saline (1 mL). Radioactivity in the combined supernatants and the hydroxyapatite fraction was measured using a gamma counter. The proportion of the ^68Ga complex binding to hydroxyapatite was determined as percent of ^68Ga absorbed to hydroxyapatite.

bone to blood ratio ([1]; 30 min): 24
bone to muscle ratio ([1]; 30 min): 41
Biodistribution: Blood ([1]; 30 min (0.5 hr) post injection): 0.54 ± 0.11 % dose/g
Biodistribution: Bone ([1]; 30 min (0.5 hr) post injection): 12.4 ± 1.19 % dose/g
Biodistribution: Brain ([1]; 30 min (0.5 hr) post injection): 0.03 ± 0.01 % dose/g
Biodistribution: Heart ([1]; 30 min (0.5 hr) post injection): 0.23 ± 0.05 % dose/g
Biodistribution: Kidney ([1]; 30 min (0.5 hr) post injection): 1.21 ± 0.94 % dose/g
Biodistribution: Liver ([1]; 30 min (0.5 hr) post injection): 0.20 ± 0.03 % dose/g
Biodistribution: Lung ([1]; 30 min (0.5 hr) post injection): 1.35 ± 1.52 % dose/g
Biodistribution: Muscle ([1]; 30 min (0.5 hr) post injection): 0.39 ± 0.24 % dose/g
Biodistribution: Pancreas ([1]; 30 min (0.5 hr) post injection): 0.15 ± 0.03 % dose/g
Biodistribution: Skin ([1]; 30 min (0.5 hr) post injection): 0.41 ± 0.12 % dose/g
Biodistribution: Spleen ([1]; 30 min (0.5 hr) post injection): 0.15 ± 0.04 % dose/g
bone to blood ratio ([1]; 60 min): 97
bone to muscle ratio ([1]; 60 min): 200
Biodistribution: Blood ([1]; 60 min (1 hr) post injection): 0.12 ± 0.02 % dose/g
Biodistribution: Brain ([1]; 60 min (1 hr) post injection): 0.01 ± 0.00 % dose/g
Biodistribution: Heart ([1]; 60 min (1 hr) post injection): 0.08 ± 0.02 % dose/g
Biodistribution: Kidney ([1]; 60 min (1 hr) post injection): 1.48 ± 0.60 % dose/g
Biodistribution: Liver ([1]; 60 min (1 hr) post injection): 0.13 ± 0.03 % dose/g
Biodistribution: Lung ([1]; 60 min (1 hr) post injection): 0.20 ± 0.05 % dose/g
Biodistribution: Muscle ([1]; 60 min (1 hr) post injection): 0.06 ± 0.01 % dose/g
Biodistribution: Pancreas ([1]; 60 min (1 hr) post injection): 0.07 ± 0.02 % dose/g
Biodistribution: Skin ([1]; 60 min (1 hr) post injection): 0.11 ± 0.03 % dose/g
Biodistribution: Spleen ([1]; 60 min (1 hr) post injection): 0.07 ± 0.01 % dose/g
Biodistribution: Blood ([1]; 6 hr post injection): 0.016 ± 0.007 % dose/g
Biodistribution: Bone ([1]; 6 hr post injection): 12.7 ± 0.90 % dose/g
Biodistribution: Brain ([1]; 6 hr post injection): 0.003 ± 0.003 % dose/g
Biodistribution: Heart ([1]; 6 hr post injection): 0.024 ± 0.005 % dose/g
Biodistribution: Kidney ([1]; 6 hr post injection): 0.686 ± 0.191 % dose/g
Biodistribution: Liver ([1]; 6 hr post injection): 0.088 ± 0.021 % dose/g
Biodistribution: Lung ([1]; 6 hr post injection): 0.062 ± 0.006 % dose/g
Biodistribution: Muscle ([1]; 6 hr post injection): 0.031 ± 0.011 % dose/g
Biodistribution: Pancreas ([1]; 6 hr post injection): 0.021 ± 0.001 % dose/g
Biodistribution: Skin ([1]; 6 hr post injection): 0.052 ± 0.006 % dose/g
Biodistribution: Spleen ([1]; 6 hr post injection): 0.038 ± 0.005 % dose/g
bone to blood ratio ([1]; 6 hr post-injection): 909^a
bone to muscle ratio ([1]; 6 hr post-injection): 454^a
Biodistribution: Blood ([1]; 24 hr post injection): 0.003 ± 0.001 % dose/g
Biodistribution: Bone ([1]; 24 hr post injection): 11.6 ± 1.14 % dose/g
Biodistribution: Brain ([1]; 24 hr post injection): 0.014 ± 0.016 % dose/g
Biodistribution: Heart ([1]; 24 hr post injection): 0.014 ± 0.003 % dose/g
Biodistribution: Kidney ([1]; 24 hr post injection): 0.411 ± 0.125 % dose/g
Biodistribution: Liver ([1]; 24 hr post injection): 0.068 ± 0.013 % dose/g
Biodistribution: Lung ([1]; 24 hr post injection): 0.040 ± 0.003 % dose/g
Biodistribution: Muscle ([1]; 24 hr post injection): 0.021 ± 0.005 % dose/g
Biodistribution: Pancreas ([1]; 24 hr post injection): 0.013 ± 0.005 % dose/g
Biodistribution: Skin ([1]; 24 hr post injection): 0.042 ± 0.008 % dose/g
Biodistribution: Spleen ([1]; 24 hr post injection): 0.034 ± 0.005 % dose/g
bone to blood ratio ([1]; 24 hr post-injection): 4312^b^
bone to muscle ratio ([1]; 24 hr post-injection): 572^b
Hydroxyapatite Binding (%) [2]: 90.9 ± 1.1%
SMILES: O=C([O-])CN1CCN(CC(=O)[O-])CCN(CC(=O)NCCNC(=O)CCc2ccc(O)c(CN(CCN(CC(=O)O)Cc3cc(CCC(=O)NC(P(=O)(O)O)P(=O)(O)O)ccc3O)CC(=O)O)c2)CCN(CC(=O)[O-])CC1.[177Lu+3] [[^177Lu]1h]
Biodistribution: Bone ([1]; 60 min (1 hr) post injection): 11.4±0.3 % dose/g and 11.4 ± 0.31 % dose/g
Biodistribution result in words (organ uptake, retention, excretion) ([1]; normal mice after iv injection): excellent bone uptake, retention in bone and fast kidney excretion
